Assay results taken from PubChem BioAssay (NCI).
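GI50: concentration for 50% inhibition of growth. TGI marks complete inhibition of growth.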

How the values were obtained:
Experiment in all cases: NCI tumour cell line growth inhibition, 384-well format
[1] = test system: HCC-2998 colon
[2] = test system: HCT-15 colon
[3] = test system: BT-549 breast
[4] = test system: HT29 colon
[5] = test system: CAKI-1 renal
[6] = test system: MCF7 breast
[7] = test system: SK-MEL-28 melanoma
[8] = test system: SF-295 CNS
[9] = test system: A498 renal
[10] = test system: NCI-H322M lung
[11] = test system: SN12C renal
[12] = test system: UACC-62 melanoma
[13] = test system: SK-OV-3 ovarian
[14] = test system: OVCAR-3 ovarian
[15] = test system: HOP-92 NSCLC
[16] = test system: DU-145 prostate
[17] = test system: HS 578T breast
[18] = test system: OVCAR-5 ovarian
[19] = test system: OVCAR-4 ovarian
[20] = test system: NCI/ADR-RES ovarian
[21] = test system: EKVX NSCLC
[22] = test system: IGROV1 ovarian
[23] = test system: MALME-3M melanoma
[24] = test system: LOX IMVI melanoma
[25] = test system: MDA-MB-468 breast
[26] = test system: NCI-H460 NSCLC
[27] = test system: UO-31 renal
[28] = test system: SF-539 CNS
[29] = test system: UACC-257 melanoma
[30] = test system: SR leukemia
[31] = test system: 786-0 renal
[32] = test system: NCI-H522 lung
[33] = test system: RPMI-8226 leukemia
[34] = test system: RXF 393 renal
[35] = test system: SK-MEL-2 melanoma
[36] = test system: TK-10 renal
[37] = test system: KM12 colon
[38] = test system: U251 glioblastoma
[39] = test system: OVCAR-8 ovarian
[40] = test system: HL-60(TB) leukemia
[41] = test system: HCT-116 colon
[42] = test system: T-47D breast
[43] = test system: MOLT-4 leukemia
[44] = test system: SNB-19 CNS
[45] = test system: SNB-75 CNS
[46] = test system: MDA-MB-435 melanoma
[47] = test system: CCRF-CEM leukemia

`CC(=O)OC[C@H]1O[C@@H](n2ccc(=O)[nH]c2=O)[C@H](OC(C)=O)[C@@H]1OC(C)=O` gave a GI50 [1] of over 100 µM, a TGI [1] of over 100 µM and a GI50 [2] of over 100 µM. It also gave a TGI [2] of over 100 µM, a GI50 [3] of over 100 µM and a TGI [3] of over 100 µM. For the same compound, the GI50 [4] was over 100 µM, the TGI [4] was over 100 µM and the GI50 [5] was over 100 µM. It also gave a TGI [5] of over 100 µM, a GI50 [6] of over 100 µM and a TGI [6] of over 100 µM. For the same compound, the GI50 [7] was over 100 µM, the TGI [7] was over 100 µM and the GI50 [8] was over 100 µM. The TGI [8] was over 100 µM, the GI50 [9] was over 100 µM and the TGI [9] was over 100 µM. It also gave a GI50 [10] of over 100 µM, a TGI [10] of over 100 µM and a GI50 [11] of over 100 µM. It also gave a TGI [11] of over 100 µM, a GI50 [12] of over 100 µM and a TGI [12] of over 100 µM. For the same compound, the GI50 [13] was over 100 µM, the TGI [13] was over 100 µM and the GI50 [14] was over 100 µM. For the same compound, the TGI [14] was over 100 µM, the GI50 [15] was over 100 µM and the TGI [15] was over 100 µM. It also gave a GI50 [16] of over 100 µM, a TGI [16] of over 100 µM and a GI50 [17] of over 100 µM. The TGI [17] was over 100 µM, the GI50 [18] was over 100 µM and the TGI [18] was over 100 µM. The GI50 [19] was over 100 µM, the TGI [19] was over 100 µM and the GI50 [20] was over 100 µM. For the same compound, the TGI [20] was over 100 µM, the GI50 [21] was over 100 µM and the TGI [21] was over 100 µM. It also gave a GI50 [22] of over 100 µM, a TGI [22] of over 100 µM and a GI50 [23] of over 100 µM. For the same compound, the TGI [23] was over 100 µM, the GI50 [24] was over 100 µM and the TGI [24] was over 100 µM. It also gave a GI50 [25] of over 100 µM, a TGI [25] of over 100 µM and a GI50 [26] of over 100 µM. It also gave a TGI [26] of over 100 µM, a GI50 [27] of over 100 µM and a TGI [27] of over 100 µM. It also gave a GI50 [28] of over 100 µM, a TGI [28] of over 100 µM and a GI50 [29] of over 100 µM. The TGI [29] was over 100 µM, the GI50 [30] was over 100 µM and the TGI [30] was over 100 µM. It also gave a GI50 [31] of over 100 µM, a TGI [31] of over 100 µM and a GI50 [32] of over 100 µM. It also gave a TGI [32] of over 100 µM, a GI50 [33] of over 100 µM and a TGI [33] of over 100 µM. The GI50 [34] was over 100 µM, the TGI [34] was over 100 µM and the GI50 [35] was over 100 µM. It also gave a TGI [35] of over 100 µM, a GI50 [36] of over 100 µM and a TGI [36] of over 100 µM. For the same compound, the GI50 [37] was over 100 µM, the TGI [37] was over 100 µM and the GI50 [38] was over 100 µM. It also gave a TGI [38] of over 100 µM, a GI50 [39] of over 100 µM and a TGI [39] of over 100 µM. The GI50 [40] was over 100 µM, the TGI [40] was over 100 µM and the GI50 [41] was over 100 µM. It also gave a TGI [41] of over 100 µM, a GI50 [42] of over 100 µM and a TGI [42] of over 100 µM. It also gave a GI50 [43] of over 100 µM, a TGI [43] of over 100 µM and a GI50 [44] of over 100 µM. For the same compound, the TGI [44] was over 100 µM, the GI50 [45] was over 100 µM and the TGI [45] was over 100 µM. For the same compound, the GI50 [46] was over 100 µM, the TGI [46] was over 100 µM and the GI50 [47] was over 100 µM. It also gave a TGI [47] of over 100 µM.

`C#Cc1cccc(Nc2ncnc3cc(OCCOC)c(OCCOC)cc23)c1` was tested, and the GI50 [1] was 48.4 µM, the TGI [1] was over 100 µM and the GI50 [2] was 4.58 µM. The TGI [2] was over 100 µM, the GI50 [3] was 14.9 µM and the TGI [3] was over 100 µM. For the same compound, the GI50 [4] was over 90.8 µM, the TGI [4] was over 100 µM and the GI50 [5] was 1.83 µM. It also gave a TGI [5] of 8.89 µM, a GI50 [6] of over 100 µM and a TGI [6] of over 100 µM. It also gave a GI50 [7] of over 85.1 µM, a TGI [7] of over 100 µM and a GI50 [8] of over 51.9 µM. It also gave a TGI [8] of over 100 µM, a GI50 [9] of 1.97 µM and a TGI [9] of over 100 µM. It also gave a GI50 [10] of 0.193 µM, a TGI [10] of 1.66 µM and a GI50 [11] of 3.79 µM. It also gave a TGI [11] of over 100 µM, a GI50 [12] of 6.74 µM and a TGI [12] of over 90.5 µM. The GI50 [13] was 1.58 µM, the TGI [13] was 8.28 µM and the GI50 [14] was 4.02 µM. The TGI [14] was over 100 µM, the GI50 [15] was 11.9 µM and the TGI [15] was over 96.6 µM. For the same compound, the GI50 [16] was 1.98 µM, the TGI [16] was over 100 µM and the GI50 [17] was 3.85 µM. For the same compound, the TGI [17] was 45.8 µM, the GI50 [18] was 6.96 µM and the TGI [18] was over 100 µM. The GI50 [19] was 32 µM, the TGI [19] was over 100 µM and the GI50 [20] was 12.6 µM. The TGI [20] was over 100 µM, the GI50 [21] was 1.93 µM and the TGI [21] was over 100 µM. For the same compound, the GI50 [22] was 0.385 µM, the TGI [22] was 5.62 µM and the GI50 [23] was 16.8 µM. For the same compound, the TGI [23] was over 100 µM, the GI50 [24] was 7.97 µM and the TGI [24] was over 100 µM. It also gave a GI50 [25] of 0.183 µM, a TGI [25] of 0.777 µM and a GI50 [26] of 9.81 µM. It also gave a TGI [26] of over 100 µM, a GI50 [27] of 2.04 µM and a TGI [27] of over 32.4 µM. It also gave a GI50 [28] of 39.3 µM, a TGI [28] of over 100 µM and a GI50 [29] of 96.9 µM. It also gave a TGI [29] of over 100 µM, a GI50 [30] of 21.4 µM and a TGI [30] of over 67.5 µM. For the same compound, the GI50 [31] was 6.46 µM, the TGI [31] was over 100 µM and the GI50 [32] was 0.433 µM. It also gave a TGI [32] of 3.47 µM, a GI50 [33] of 7.94 µM and a TGI [33] of over 88.4 µM. For the same compound, the GI50 [34] was 7.83 µM, the TGI [34] was over 27.3 µM and the GI50 [35] was 8.78 µM. It also gave a TGI [35] of over 100 µM, a GI50 [36] of 0.849 µM and a TGI [36] of over 100 µM. The GI50 [37] was over 27.8 µM, the TGI [37] was over 100 µM and the GI50 [38] was 43.4 µM. It also gave a TGI [38] of over 100 µM, a GI50 [39] of 7.75 µM and a TGI [39] of over 100 µM. It also gave a GI50 [40] of 6.29 µM, a TGI [40] of over 43.1 µM and a GI50 [41] of 11.6 µM. For the same compound, the TGI [41] was over 100 µM, the GI50 [42] was 6.56 µM and the TGI [42] was over 89 µM. For the same compound, the GI50 [43] was 7.14 µM, the TGI [43] was over 51.9 µM and the GI50 [44] was over 100 µM. The TGI [44] was over 100 µM, the GI50 [45] was 8 µM and the TGI [45] was 50.5 µM. For the same compound, the GI50 [46] was over 100 µM, the TGI [46] was over 100 µM and the GI50 [47] was 11.2 µM. For the same compound, the TGI [47] was over 100 µM.
